Literature values, collected in patent US20070298107A1, “Pharmaceutical Compositions of Mirtazapine” (AUROBINDO PHARMA LTD., priority 2003, published 2007).

Settings: background statement

For `CN1CCN2c3ncccc3Cc3ccccc3C2C1` (stereo not shown) [Mirtazapine], the solubility in water is given as “essentially insoluble”.
